What was measured:
Assay in all cases: KiNativ profiling in human PBMCs
Type in all cases: binding
BARK1 = test system: T1, BARK1; conditions: Lys2
T1 construct: purchased ActivX Technologies (KiNativ)
Procedure, shortened: (§1)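 Steps: expose living PBMCs to compound (0.1 µM or 1 µM); perform KiNativ-based kinase profiling.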

HCK = test system: T2, HCK; conditions: Activation Loop
T2 construct: purchased ActivX Technologies (KiNativ)
Procedure, shortened: as §1

KSR1,KSR2 = conditions: Activation Loop
Procedure, shortened: as §1

RSKL1 domain1 = test system: T3, RSKL1 domain1; conditions: Protein Kinase Domain
T3 construct: RSKL1 domain1; purchased ActivX Technologies (KiNativ)
Procedure, shortened: as §1

RSK2 domain1 = test system: T4, RSK2 domain1
T4 construct: RSK2 domain1; purchased ActivX Technologies (KiNativ)
Procedure, shortened: as §1

LOK = test system: T5, LOK
T5 construct: purchased ActivX Technologies (KiNativ)
Procedure, shortened: as §1

DNAPK = test system: T6, DNAPK; conditions: ATP
T6 construct: purchased ActivX Technologies (KiNativ)
Procedure, shortened: as §1

NEK1 = test system: T7, NEK1; conditions: Lys2
T7 construct: purchased ActivX Technologies (KiNativ)
Procedure, shortened: as §1

AKT1 = test system: T8, AKT1; conditions: ATP Loop
T8 construct: purchased ActivX Technologies (KiNativ)
Procedure, shortened: as §1

BRAF = test system: T9, BRAF; conditions: Lys2
T9 construct: purchased ActivX Technologies (KiNativ)
Procedure, shortened: as §1

FRAP = test system: T10, FRAP; conditions: ATP
T10 construct: purchased ActivX Technologies (KiNativ)
Procedure, shortened: as §1

MST3 = test system: T11, MST3; conditions: Lys2
T11 construct: purchased ActivX Technologies (KiNativ)
Procedure, shortened: as §1

PYK2 = test system: T12, PYK2; conditions: Lys1
T12 construct: purchased ActivX Technologies (KiNativ)
Procedure, shortened: as §1

p38d,p38g = conditions: Lys2
Procedure, shortened: as §1

TLK1 = test system: T13, TLK1
T13 construct: purchased ActivX Technologies (KiNativ)
Procedure, shortened: as §1

DGKA = test system: T14, DGKA; conditions: ATP
T14 construct: purchased ActivX Technologies (KiNativ)
Procedure, shortened: as §1

LKB1 = test system: T15, LKB1; conditions: Lys2
T15 construct: purchased ActivX Technologies (KiNativ)
Procedure, shortened: as §1

PIK3CB = test system: T16, PIK3CB; conditions: ATP
T16 construct: purchased ActivX Technologies (KiNativ)
Procedure, shortened: as §1

CDK5 = test system: T17, CDK5
T17 construct: purchased ActivX Technologies (KiNativ)
Procedure, shortened: as §1

JAK1 domain1 = test system: T18, JAK1 domain1; conditions: Other
T18 construct: JAK1 domain1; purchased ActivX Technologies (KiNativ)
Procedure, shortened: as §1

RSK1,RSK2,RSK3 domain1 = conditions: Lys2
Procedure, shortened: as §1

PIK3CD = test system: T19, PIK3CD; conditions: ATP
T19 construct: purchased ActivX Technologies (KiNativ)
Procedure, shortened: as §1

TLK2 = test system: T20, TLK2; conditions: Lys2
T20 construct: purchased ActivX Technologies (KiNativ)
Procedure, shortened: as §1

GSK3A = test system: T21, GSK3A; conditions: Lys2
T21 construct: purchased ActivX Technologies (KiNativ)
Procedure, shortened: as §1

Erk1 = test system: T22, Erk1; conditions: Lys2
T22 construct: purchased ActivX Technologies (KiNativ)
Procedure, shortened: as §1

NEK6,NEK7 = conditions: Lys2
Procedure, shortened: as §1

SMG1 = test system: T23, SMG1; conditions: ATP
T23 construct: purchased ActivX Technologies (KiNativ)
Procedure, shortened: as §1

JNK1,JNK2,JNK3 = conditions: Lys2
Procedure, shortened: as §1

PIP5K3 = test system: T24, PIP5K3; conditions: ATP
T24 construct: purchased ActivX Technologies (KiNativ)
Procedure, shortened: as §1

IRAK3 = test system: T25, IRAK3; conditions: Lys1
T25 construct: purchased ActivX Technologies (KiNativ)
Procedure, shortened: as §1

FGR = test system: T26, FGR; conditions: Activation Loop
T26 construct: purchased ActivX Technologies (KiNativ)
Procedure, shortened: as §1

CSK = test system: T27, CSK
T27 construct: purchased ActivX Technologies (KiNativ)
Procedure, shortened: as §1

JAK1 domain2 = test system: T28, JAK1 domain2
T28 construct: JAK1 domain2; purchased ActivX Technologies (KiNativ)
Procedure, shortened: as §1

Erk2 = test system: T29, Erk2; conditions: Lys2
T29 construct: purchased ActivX Technologies (KiNativ)
Procedure, shortened: as §1

SMILES: Cc1cccc(-c2cc(Nc3ccn(C)n3)nc3[nH]cc(C#N)c23)c1 [Lu AF58786]
- Inhibition (BARK1; 0.1µM): 12.1%
- Inhibition (BARK1; 1µM): 6.3%
- Inhibition (HCK; 0.1µM): -0.451%
- Inhibition (HCK; 1µM): -12.8%
- Inhibition (KSR1,KSR2; 0.1µM): 12.4%
- Inhibition (KSR1,KSR2; 1µM): -3.6%
- Inhibition (RSKL1 domain1; 0.1µM): 15.2%
- Inhibition (RSKL1 domain1; 1µM): 1.9%
- Inhibition (RSK2 domain1; 0.1µM, ATP Loop): 26.3%
- Inhibition (RSK2 domain1; 0.1µM, Activation Loop): 16.6%
- Inhibition (RSK2 domain1; 0.1µM, Lys2): 1.6%
- Inhibition (RSK2 domain1; 1µM, ATP Loop): 13.9%
- Inhibition (RSK2 domain1; 1µM, Activation Loop): 32.7%
- Inhibition (RSK2 domain1; 1µM, Lys2): 27.1%
- Inhibition (LOK; 0.1µM, Lys1): 13.2%
- Inhibition (LOK; 0.1µM, Lys2): 1.8%
- Inhibition (LOK; 1µM, Lys1): 9.9%
- Inhibition (DNAPK; 0.1 µM, EHPFLVKGGEDLR): 19.6%
- Inhibition (DNAPK; 0.1 µM, KGGSWIQEINVAEK): -21.8%
- Inhibition (DNAPK; 1 µM, KGGSWIQEINVAEK): 2.3%
- Inhibition (NEK1; 0.1µM): -2.3%
- Inhibition (NEK1; 1µM): -14.0%
- Inhibition (AKT1; 0.1µM): 7.0%
- Inhibition (AKT1; 1µM): -7.5%
- Inhibition (BRAF; 0.1µM): 6.1%
- Inhibition (BRAF; 1µM): -13.8%
- Inhibition (FRAP; 0.1µM): 5.2%
- Inhibition (FRAP; 1µM): -3.4%
- Inhibition (MST3; 0.1µM): 12.8%
- Inhibition (MST3; 1µM): 1.2%
- Inhibition (PYK2; 0.1µM): -16.3%
- Inhibition (PYK2; 1µM): -2.7%
- Inhibition (p38d,p38g; 0.1µM): 7.1%
- Inhibition (p38d,p38g; 1µM): -0.541%
- Inhibition (TLK1; 0.1µM, Lys1): 2.2%
- Inhibition (TLK1; 0.1µM, Lys2): 16.2%
- Inhibition (TLK1; 1µM, Lys1): 15.4%
- Inhibition (TLK1; 1µM, Lys2): 4.7%
- Inhibition (DGKA; 0.1µM): 1.1%
- Inhibition (DGKA; 1µM): -1.9%
- Inhibition (LKB1; 0.1µM): 6.1%
- Inhibition (LKB1; 1µM): 3.9%
- Inhibition (PIK3CB; 0.1µM): 14.0%
- Inhibition (PIK3CB; 1µM): -22.3%
- Inhibition (CDK5; 0.1µM, Lys1): 15.8%
- Inhibition (CDK5; 0.1µM, Lys2): 2.3%
- Inhibition (CDK5; 1µM, Lys1): 17.6%
- Inhibition (CDK5; 1µM, Lys2): 2.5%
- Inhibition (JAK1 domain1; 0.1 µM): 19.3%
- Inhibition (JAK1 domain1; 1 µM): 55.0%
- Inhibition (RSK1,RSK2,RSK3 domain1; 0.1µM): 14.1%
- Inhibition (RSK1,RSK2,RSK3 domain1; 1µM): 29.7%
- Inhibition (PIK3CD; 0.1 µM, TKVNWLAHNVSKDNRQ): -4.8%
- Inhibition (PIK3CD; 0.1 µM, VNWLAHNVSKDNRQ): 8.9%
- Inhibition (PIK3CD; 1 µM, TKVNWLAHNVSKDNRQ): 14.4%
- Inhibition (PIK3CD; 1 µM, VNWLAHNVSKDNRQ): 18.8%
- Inhibition (TLK2; 0.1µM): 13.3%
- Inhibition (TLK2; 1µM): -1.2%
- Inhibition (GSK3A; 0.1µM): 13.7%
- Inhibition (GSK3A; 1µM): 27.3%
- Inhibition (Erk1; 0.1µM): 2.3%
- Inhibition (Erk1; 1µM): 1.5%
- Inhibition (NEK6,NEK7; 0.1µM): 15.4%
- Inhibition (NEK6,NEK7; 1µM): -5.8%
- Inhibition (SMG1; 0.1 µM, DTVTIHSVGGTITILPTKTKPK): -6.3%
- Inhibition (SMG1; 0.1 µM, SYPYLFKGLEDLHLDER): 12.6%
- Inhibition (SMG1; 1 µM, DTVTIHSVGGTITILPTKTKPK): -13.9%
- Inhibition (SMG1; 1 µM, SYPYLFKGLEDLHLDER): 4.3%
- Inhibition (JNK1,JNK2,JNK3; 0.1µM): 30.2%
- Inhibition (JNK1,JNK2,JNK3; 1µM): 71.2%
- Inhibition (PIP5K3; 0.1µM): -2.2%
- Inhibition (PIP5K3; 1µM): 4.2%
- Inhibition (IRAK3; 0.1µM): -25.6%
- Inhibition (IRAK3; 1µM): 17.0%
- Inhibition (FGR; 0.1µM): 11.4%
- Inhibition (FGR; 1µM): 5.2%
- Inhibition (CSK; 0.1µM, Activation Loop): 7.6%
- Inhibition (CSK; 0.1µM, Lys1): 16.0%
- Inhibition (CSK; 1µM, Activation Loop): -1.7%
- Inhibition (CSK; 1µM, Lys1): 6.8%
- Inhibition (JAK1 domain2; 0.1µM, Activation Loop): 0.9%
- Inhibition (JAK1 domain2; 0.1µM, Lys1): -25.0%
- Inhibition (JAK1 domain2; 1µM, Activation Loop): -39.0%
- Inhibition (JAK1 domain2; 1µM, Lys1): -35.1%
- Inhibition (Erk2; 0.1µM): 2.4%
- Inhibition (Erk2; 1µM): 1.7%

Source: paper PMC5578959, “Selective LRRK2 kinase inhibition reduces phosphorylation of endogenous Rab10 and Rab12 in human peripheral mononuclear blood cells” (Scientific Reports, 2017)
